Data: patent publication US10076511B2, “Bisamide derivative of dicarboxylic acid as an agent for stimulating tissue regeneration and recovery of diminished tissue function” (TREAMID GmbH, priority 2015, dated 2018)
Where “and” joins values, the source holds several entries; their conditions need not be identical. Identical values can stand only once.

How the values were obtained:
male Wistar rats = test: Sexual incentive motivation test, rats of late reproductive age; type: in vivo, rat
Method: Erectile dysfunction was simulated by using animals of late and senile reproductive age (14-19 months). Suppression of sexual motivation was simulated by using animals of late reproductive age (14 months).
Experiments on studying the effect of Treamid on sexual motivation were carried out on 40 male Wistar rats (14 months of age). A model for a targeted search for novel agents for the therapy of this pathology was used as an experimental model of sexual incentive motivation in rats [Xi Chu, Ekaterina S. Zhavbert, Julia L. Dugina, Irina A. Kheyfets, Svetlana A. Sergeeva, Oleg I. Epstein, Anders Agmo Sindenafil and a compound stimulating endothelial NO synthase modity sexual incentive motivation and copulatory behavior in male wistar and fisher 344//J Sex Med.—2008.—5.—P. 2085-2009]. This model is based on the fact that rats are social animals and seek not only sexual, but also social contacts. The assessment of sexual motivation involves determining the time spent near a sexual stimulus and the score of preference in animals without direct contact with “social” and “sexual” stimuli. The sexual stimulus was a female rat in estrus stage, and the social stimulus was a male rat.

male C57BL/6 mice = test: Streptozotocin-induced pancreatic lesion model; type: in vivo, mouse; parameters: The number of piconized cells per islet (pixel): unit not given here
Method: The study was performed on male C57BL/6 mice of 4 week old. Pancreatic damage was induced by intraperitoneal injection of streptozotocin at a dose of 40 mg/kg in 0.25 ml of phosphate buffer every day for 5 days [Szkudelski T. The Mechanism of Alloxan and Streptozotocin Action in B Cells of the Rat Pancreas//Physiological Research.—2001.—Vol. 50.—P. 536-546].
Treamid at a dose of 1 mg/kg was administered daily intragastrically once daily on Days 7-20 of the study.
On Days 0, 6, 10, 13, 16, 19, 21, 24, and 28 of the study, blood glucose was determined. The blood glucose level was determined after four-hour deprivation of feed with a glucometer (SencoCard glucometer, “77 Electronics Kft”, Hungary).
On Day 28 of the study, the animals were euthanized in a CO2 chamber, the pancreas was subjected to a morphological examination, and the pancreatic homogenate was studied on an enzyme-linked immunosorbent assay for common collagen and type I collagen.
For morphological study, a part of the pancreas adjacent to the spleen was fixed in 10% formalin and poured into paraffin. Deparaffined sections of the gland were stained with hematoxylin and eosin. On the sections, the area of 10 serial islets of Langerhans was determined by graphic computer analysis, and the total number of cells and the number of pyknotized cells were counted therein. Then, the number of cells per unit islet area and the percentage of the pyknotized cells were calculated.
Inflammatory cells (neutrophils, lymphocytes, macrophages) in the pancreatic tissue and their composition were studied by staining of the histological sections with hematoxylin-eosin and azur-eosin.
The level of mouse type I collagen in a […] was determined by enzyme-linked immunosorbent assay (Cusabio Biotech CO., LTD, China). The lung tissue homogenate was prepared according to the protocol of the manufacturer, Cusabio Biotech CO., LTD (China).
The level of the total collagen in the lung homogenate was determined by using a SIRCOL Collagen Assay kit (Biocolor Ltd, UK) for determining collagen by binding it to a dye and treating with an acid and a solution of pepsin, according to the manufacturer's instructions. The lung tissue homogenate was prepared according to the protocol of manufacturer's test system.

female C57Bl/6 mice = test: Elastase-induced pulmonary emphysema model; type: in vivo, mouse
Method: Pulmonary emphysema was induced in female C57Bl/6 mice by a single intratracheal administration of elastase (Sigma, USA) at a dose of 0.6 U/mouse in 30 μl of 0.9% NaCl [Lüthje L., Raupach T., Michels H. et al.//Respiratory Research 2009, 10: 7]. The day of operation was taken as Day 0 of the experiment. Treamid was administered at a dose of 10 mg/kg intragastrically once daily, every day from Day 7 to Day 60 of the study. On Days 7, 14, 30 and 60, the animals were euthanized in a CO2 chamber, and their lungs were isolated.
The dynamics and severity of the developed emphysema in the lung tissue were assessed on histological preparations. For this, the lungs were fixed in a 10% neutral formalin solution and then poured into paraffin by the standard method. The preparations of the lung apex, middle lung field, and lower lung field of a thickness of 5 μm were prepared from the deparaffined sections, and stained with hematoxylin and eosin by the standard procedure. Further, photographs of the lung apex, middle lung field, and lower lung field were made, and the localization and area of emphysema were studied by using graphics processing software. The area of emphysematously enlarged lung tissue (% of normal tissue) was measured as an estimated score of the development of emphysema, and blood vessels and bronchi were excluded from the calculations [ArrateMunoz-Barrutia, Mario Ceresa, Xabier Artaechevarria, Luis M. Montuenga, and Carlos Ortiz-de-Solorzano. Quantification of Lung Damage in an Elastase-Induced Mouse Model of Emphysema//International Journal of Biomedical Imaging. Volume 2012, Article ID 734734, 11 pages; Susumu Sato, Erzsebet Bartoldk-Suki, Harikrishnan Parameswaran, Hiroshi Hamakawal and Bela Suki. Scale dependence of structure-function relationship in the emphysematous mouse lung//Front. Physiol. 6:146. doi: 10.3389/fphys. 2015.00146].

[1] = 14-month rats, Second test, after administration of the test compound, Treamid 5 mg/kg, Sildenafil 3 mg/kg, 14 days
[2] = 14-month rats, first test, before administration
[3] = Day 7, Treamid 10 mg/kg intragastrically from Day 7

**Q.** `O=C(CCCC(=O)NCCc1ncc[nH]1)NCCc1ncc[nH]1` [Treamid] was tested. Which “A, sec (time spent in the sexual stimulus zone)” value (male Wistar rats; [1]) did it give?
**A.** Its value is 154.00 ± 41.83#⋄ sec.

**Q.** And the “B, sex (time spent in the social stimulus zone)” value (male Wistar rats; [1])?
**A.** Its value is 95.60 ± 29.66 s.

**Q.** And the “PS, s. u. (preference score)” value (male Wistar rats; [1])?
**A.** The value was 0.64±0.09 s. u. and 0.64 ± 0.09⋄ s. u.

**Q.** And the “effect on sexual motivation” value (male Wistar rats; 14-month rats, Treamid 5 mg/kg, Sildenafil 3 mg/kg)?
**A.** The value was “has a stimulating effect”.

**Q.** And the “A, sec (time spent in the sexual stimulus zone)” value (male Wistar rats; [2])?
**A.** Its value is 132.30 ± 23.69 s.

**Q.** And the “B, sec (time spent in the social stimulus zone)” value (male Wistar rats; [2])?
**A.** The value was 113.60 ± 13.77 s.

**Q.** And the “PS, s. u. (preference score)” value (male Wistar rats; [2])?
**A.** Its value is 0.51 ± 0.06 s. u.

**Q.** And the “decrease of time spent in the social stimulus zone compared with the control” value (male Wistar rats; Treamid 5 mg/kg, second test)?
**A.** The value was 2 times.

**Q.** What about the “The area of the islet tissue (pixel)” value (male C57BL/6 mice; Day 28, Treamid 1 mg/kg) of the same molecule?
**A.** The value was 635770 ± 56163• pixel.

**Q.** What about the “The number of piconized cells per islet (pixel)” value (male C57BL/6 mice; Day 28, Treamid 1 mg/kg) of the same molecule?
**A.** The value was 1.75 ± 0.14.

**Q.** What about the “The total number of cells in the islet of Langerhans (×10^4)” value (male C57BL/6 mice; Day 28, Treamid 1 mg/kg) of the same molecule?
**A.** Its value is 109.9 ± 12.6• ×10^4.

**Q.** And the “blood glucose level (mM/L)” value (male C57BL/6 mice; Initial level)?
**A.** The value was 5.1 ± 0.1 mM/L.

**Q.** And the “blood glucose level (mM/L)” value (male C57BL/6 mice; day 6 after the last administration of streptozotocin (before Treamid, given Days 7-20))?
**A.** The value was 10.8 ± 0.4 mM/L.

**Q.** And the “blood glucose level (mM/L)” value (male C57BL/6 mice; day 10, Treamid 1 mg/kg intragastrically Days 7-20)?
**A.** The value was 11.2 ± 0.2 mM/L.

**Q.** What about the “blood glucose level (mM/L)” value (male C57BL/6 mice; day 13, Treamid 1 mg/kg intragastrically Days 7-20) of the same molecule?
**A.** Its value is 11.6 ± 0.3*• mM/L.

**Q.** And the “blood glucose level (mM/L)” value (male C57BL/6 mice; day 16, Treamid 1 mg/kg intragastrically Days 7-20)?
**A.** The value was 10.4 ± 1.4 mM/L.

**Q.** What about the “blood glucose level (mM/L)” value (male C57BL/6 mice; day 19, Treamid 1 mg/kg intragastrically Days 7-20) of the same molecule?
**A.** Its value is 12.0 ± 0.1 mM/L.

**Q.** What about the “blood glucose level (mM/L)” value (male C57BL/6 mice; day 21, Treamid 1 mg/kg intragastrically Days 7-20) of the same molecule?
**A.** The value was 12.1 ± 0.4*• mM/L.

**Q.** And the “blood glucose level (mM/L)” value (male C57BL/6 mice; day 24, Treamid 1 mg/kg intragastrically Days 7-20)?
**A.** The value was 12.2 ± 1.0*• mM/L.

**Q.** And the “blood glucose level (mM/L)” value (male C57BL/6 mice; day 28, Treamid 1 mg/kg intragastrically Days 7-20)?
**A.** Its value is 12.6 ± 1.1 mM/L.

**Q.** What about the “The area of emphysematously enlarged lung tissue (% of normal), Lower lung field” value (from here on “The area … (% of normal), Lower lung field”) (female C57Bl/6 mice; [3]) of the same molecule?
**A.** Its value is 41.3 ± 1.82 % of normal.

**Q.** And the “The area of emphysematously enlarged lung tissue (% of normal), Lung apex” value (“The area … (% of normal), Lung apex” below) (female C57Bl/6 mice; [3])?
**A.** Its value is 0.9 ± 0.12*• % of normal.

**Q.** And the “The area of emphysematously enlarged lung tissue (% of normal), Middle lung field” value (“The area … (% of normal), Middle lung field” below) (female C57Bl/6 mice; [3])?
**A.** The value was 5.4 ± 0.55 % of normal.

**Q.** What about the “The area … (% of normal), Lower lung field” value (female C57Bl/6 mice; Day 14, Treamid 10 mg/kg) of the same molecule?
**A.** The value was 42.6 ± 1.79*• % of normal.

**Q.** What about the “The area … (% of normal), Lung apex” value (female C57Bl/6 mice; Day 14, Treamid 10 mg/kg) of the same molecule?
**A.** Its value is 0.7 ± 0.09*• % of normal.

**Q.** What about the “The area … (% of normal), Middle lung field” value (female C57Bl/6 mice; Day 14, Treamid 10 mg/kg) of the same molecule?
**A.** The value was 29.03 ± 1.76 % of normal.

**Q.** And the “The area … (% of normal), Lower lung field” value (female C57Bl/6 mice; Day 30, Treamid 10 mg/kg)?
**A.** Its value is 32.8 ± 3.78*• % of normal.

**Q.** And the “The area … (% of normal), Lung apex” value (female C57Bl/6 mice; Day 30, Treamid 10 mg/kg)?
**A.** Its value is 2.4 ± 1.6*• % of normal.

**Q.** And the “The area … (% of normal), Middle lung field” value (female C57Bl/6 mice; Day 30, Treamid 10 mg/kg)?
**A.** The value was 18.5 ± 2.91 % of normal.

**Q.** What about the “The area … (% of normal), Lower lung field” value (female C57Bl/6 mice; Day 60, Treamid 10 mg/kg) of the same molecule?
**A.** Its value is 40.0 ± 3.57*• % of normal.

**Q.** And the “The area … (% of normal), Lung apex” value (female C57Bl/6 mice; Day 60, Treamid 10 mg/kg)?
**A.** Its value is 3.6 ± 0.26*• % of normal.

**Q.** And the “The area … (% of normal), Middle lung field” value (female C57Bl/6 mice; Day 60, Treamid 10 mg/kg)?
**A.** Its value is 24.9 ± 3.11 % of normal.
